Assay results from the NIST ThermoML archive (doi:10.1016/j.fluid.2006.07.005).
Numbers after ± are expanded uncertainties.

Experiments:
[1] = Molar enthalpy of transition or fusion; settings: DSC
[2] = DTA

In the case of CCCCCCOCn1cc[n+](COCCCCCC)c1.O=S(=O)([N-]S(=O)(=O)C(F)(F)F)C(F)(F)F, the “Molar enthalpy of transition or fusion” value ([1]; Crystal 1) is reported as 3.82 ± 0.12 kcal/mol, the Triple point temperature ([2]; Crystal 1) is reported as 273.8 ± 5.5 K and the Glass transition temperature ([2]; Glass) is reported as -81.3 ± 3.9 °C.

For CCCCCCOCn1cc[n+](COCCCCCC)c1.F[B-](F)(F)F, the “Molar enthalpy of transition or fusion” value ([1]; Crystal 1) was 3.06 ± 0.12 kcal/mol, the “Molar enthalpy of transition or fusion” value ([1]; Crystal 2) was 0.167 ± 0.0717 kcal/mol and the “Molar enthalpy of transition or fusion” value ([1]; Crystal 3) was 0.478 ± 0.0717 kcal/mol. It also gave a Triple point temperature ([2]; Crystal 1) of 309.5 ± 6.2 K, a Triple point temperature ([2]; Crystal 2) of 243.6 ± 4.9 K and a Triple point temperature ([2]; Crystal 3) of 142.6 ± 2.9 K.
